Reference: patent EP4755891A1, “ARF1 INHIBITOR AND USE THEREOF” (AOBIO PHARMACEUTICAL CO., LTD., priority 2023, dated 2025)
“Also recorded” adds a separate entry of the source. Read-outs that look alike come from different tables or passages of the source.

Tests used:
[1] = tested on: B16-F10 melanoma; test: Inhibition of B16-F10 melanoma in C57B/6 mice; assay type: in vivo; conditions: 5 mg/kg, oral, two consecutive weeks
Description: In this example, the inhibitory effect of Compound 9 synthesized in the above preparation example on melanoma tumor growth was tested.
Murine B16-F10 cells were inoculated at a dose of 5×10^5 cells per mouse into the left abdomen of 6-week-old male mice. Approximately 7 days later, the mice were treated orally with ddH2O or the novel Arf1 inhibitor for two consecutive weeks. The mice were randomly divided into three groups: the control group, the Compound 9 treatment group, and the DU102 treatment group. The mice were administered ddH2O, 5 mg/kg of Compound 9 (dissolved in ddH2O), or 5 mg/kg of DU102 (dissolved in a solvent composed of 5% DMSO + 95% corn oil, as a positive control) for two consecutive weeks. Tumor diameters were measured every 2-3 days using a digital caliper (ULINE, Cat^# H-7352), and the tumor volume was calculated using the formula ½ × longitudinal diameter (length) × maximum transverse diameter (width). When the maximum tumor volume reached 2000 mm^3, the mice were euthanized.

[2] = Solubility in DMSO and H2O
[3] = molecular target: T1, Arf1 (Homo sapiens, UniProt P84077); test: Inhibition test of Arf1 activation (Active Arf1 pull-down and detection kit, Western blot); assay type: cell-based; conditions: lysate of liver cancer Huh-7 cells; GTP-bound Arf1; FIG. 3
T1 construct: endogenous in cells; host or cells: Huh-7 liver cancer cells (lysate)
Description: In this example, the inhibitory ability of Compounds 3 and 9 synthesized in the above preparation examples on Arf1 activation was tested. The Pierce Active Arf1 Pull-Down and Detection Kit (Thermo Scientific, Cat#16121) was used with the lysate of liver cancer Huh-7 cells to detect the activated Arf1. It is a complete kit that selectively enriches and detects GTP-bound Arf1 GTPase through specific protein interactions with the GGA3 protein-binding domain.

[4] = tested on: Mouse neuroblastoma N2A; test: Test for Golgi morphology abnormalities (GM130 immunofluorescence); assay type: cell-based; conditions: N2A cells; FIG. 4
Description: GCA, a known Arf1 inhibitor, was used as a positive control.
Mouse neuroblastoma N2A (N2a, ATCC®CCL-131™) was cultured, treated, and subjected to immunofluorescence staining as previously reported (Wang et al., 2021).

[5] = Pharmacokinetic study in SD rats; assay type: in vivo
Description: In this experiment, six male SD rats were divided into two groups based on similar body weight. These rats were administered Compound 9 via single intravenous injection and oral gavage, respectively. The intravenous injection dose was 2 mg/kg, while the oral gavage dose was 10 mg/kg. The vehicle for both intravenous and oral administration was a clear solution of 5% DMSO + 5% PEG400 + 90% water. The concentration for intravenous injection was 0.4 mg/mL, and for oral gavage was 1 mg/mL. K2-EDTA was used as the anticoagulant. The blood sampling time points were all at: 0.083, 0.25, 0.5, 1, 3, 6, 12, and 24 hours.
Blood samples of 0.02 mL were collected from the saphenous vein of all experimental animals, and the actual blood collection time was recorded. In this experiment, the deviation of the blood sampling time from the theoretical sampling time complied with the regulations (points within 1 hour after administration were within ±1 minute, and all others were within 5% of the theoretical time). After blood sample collection, the blood samples were immediately transferred to labeled centrifuge tubes containing K2-EDTA (0.5 M). The samples were then centrifuged (3000 g, 4°C, 15 minutes), and the plasma was collected. The plasma was transferred to a pre-cooled centrifuge tube, flash-frozen in dry ice, and stored in an ultra-low temperature freezer at -60°C or less until LC-MS/MS analysis was performed.

[6] = Plasma stability, mouse plasma; assay type: in vitro ADME; conditions: 2.0 µM, 37°C
Description: (§1) At 37°C, 2.0 µM of the compound was co-incubated with plasma samples from five species (mouse, rat, dog, cynomolgus monkey, human) for 120 minutes. The concentration of the compound in the samples was detected by the liquid chromatography-tandem mass spectrometry (LC-MS/MS) method, and the half-life (T1/2) was calculated.

[7] = tested on: Drosophila orthotopic tumors; test: Inhibition of orthotopic tumor growth in Drosophila; assay type: in vivo; conditions: 5 µM in food, 4 days; Ras^V12-PMML clones; FIG. 7
Description: In this example, the inhibitory effects of Compounds 3 and 9 synthesized in the above preparation examples on the growth of Drosophila orthotopic tumors were tested. As previously described, renal stem cell tumor clusters were induced by expressing Ras in Drosophila renal stem cell (Ras^V12-PMML) clones (Singh et al., 2016). The Drosophila carrying Ras^V12-PMML clones were cultured with normal food at room temperature for 4 days to allow tumor growth. They were then switched to food containing the indicated drugs for an additional 4 days, followed by feeding the Drosophila carrying Ras^V12-PMML with normal food containing DMSO or 5 µM Compound 3 or Compound 9. In the indicated groups, the number of esg>GFP + tumor cells per 5×10^3 µm^2 area was quantified to characterize tumor size.

[8] = tested on: CCL5; test: Upregulation of chemokine CCL5 expression (quantitative RT-PCR); assay type: cell-based, Murine; conditions: CT26 cells; FIG. 5
Description: In this example, the upregulation of chemokine CCL5 expression induced by the treatment of Compounds 3 and 9 synthesized in the above preparation examples was tested. Quantitative RT-PCR was used to measure the expression level of chemokine CCL5 in CT26 cells treated with DMSO, Compound 3, or Compound 9.

[9] = tested on: NF-κB signaling pathway; test: Activation of NF-κB signaling pathway (phosphorylated P65, Western blot); assay type: cell-based, Murine; conditions: CT26 cells; FIG. 6
Description: In this example, Compounds 3 and 9 synthesized in the above preparation examples were tested for their ability to activate the NF-κB signaling pathway, as indicated by an increase of phosphorylated P65. GCA, a known Arf1 inhibitor, was used as a positive control.
In CT26 cells treated with DMSO, GCA, Compound 3, or Compound 9, the relevant protein levels were evaluated by Western blot analysis as previously described (Wang et al., 2020).

[10] = Plasma stability, dog plasma; assay type: in vitro ADME; conditions: 2.0 µM, 37°C
Description: as §1

T1 sequence (P84077 whole entry): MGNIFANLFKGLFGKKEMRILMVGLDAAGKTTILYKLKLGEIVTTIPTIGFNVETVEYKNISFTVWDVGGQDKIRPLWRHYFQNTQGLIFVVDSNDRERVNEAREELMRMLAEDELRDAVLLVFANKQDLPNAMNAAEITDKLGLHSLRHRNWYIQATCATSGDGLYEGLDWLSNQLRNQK

Q: What does the source list for `Cc1csc2ncnc(Nc3ccc4c(c3)ncn4C)c12` [Compound 9, 5-Methyl-N-(1-methyl-1H-benzo[d]imidazol-5-yl)thieno[2,3-d]pyrimidin-4-amine]?
A: B16-F10 melanoma growth ([1]; FIG. 8): effectively inhibit B16-F10 melanoma growth; size of murine melanoma tumors ([1]; FIG. 8A): significantly inhibited the size of murine melanoma tumors; weight of murine melanoma tumors ([1]; FIG. 8B): significantly reduced the weight of murine melanoma tumors; solubility in DMSO ([2]; DMSO, FIG. 2A): soluble; solubility in H2O ([2]; H2O, FIG. 2B): high solubility; inhibition of Arf1 activation [3]: effectively inhibit the activation of Arf1; also recorded: effective inhibitors; Golgi morphology (Golgi apparatus defects, distribution of Golgi marker GM130) [4]: induce Golgi apparatus defects; also recorded: effectively induce morphological changes in the Golgi apparatus; absorption in rats ([5]; conclusion in words): rapidly absorbed; apparent volume of distribution ([5]; conclusion in words): moderate apparent volume of distribution; oral bioavailability ([5]; conclusion in words): high oral bioavailability; Vd ([5]; rat, plasma, Intravenous Injection, 2 mg/kg, male SD rats, read-out: Apparent Volume of Distribution Vdss): 0.647 L/kg; clearance ([5]; rat, plasma, Intravenous Injection, 2 mg/kg, male SD rats, read-out: Clearance Cl): 39.8 mL/min/kg; half-life ([5]; rat, plasma, Intravenous Injection, 2 mg/kg, male SD rats, read-out: Half-Life T1/2 (converted)): 11 min; bioavailability ([5]; rat, plasma, Oral Gavage, 10 mg/kg vs intravenous 2 mg/kg, male SD rats, read-out: Bioavailability F): 164%; AUC(0-t) ([5]; rat, plasma, Oral Gavage, 10 mg/kg, male SD rats, read-out: Exposure AUC0-last): 6840 ng·h/mL; half-life ([5]; rat, plasma, Oral Gavage, 10 mg/kg, male SD rats, read-out: Half-life T1/2 (converted)): 34.2 min; Cmax ([5]; rat, plasma, Oral Gavage, 10 mg/kg, male SD rats, read-out: Maximum Concentration Cmax): 4770 ng/mL; remaining amount in plasma ([6]; time point 0 min): 100.0%; remaining amount in plasma ([6]; time point 10 min): 99.3%; remaining amount in plasma ([6]; time point 30 min): 98.6%; remaining amount in plasma ([6]; time point 60 min): 104.1%; remaining amount in plasma ([6]; time point 120 min): 96.5%; orthotopic tumor growth in Drosophila [7]: effectively inhibit orthotopic tumor growth; expression of the chemokine CCL5 [8]: effectively promote the expression; phosphorylation level of P65 [9]: increase the phosphorylation level of P65; remaining amount in plasma ([10]; time point 0 min): 100.0%; remaining amount in plasma ([10]; time point 10 min): 99.0%; remaining amount in plasma ([10]; time point 30 min): 94.0%; remaining amount in plasma ([10]; time point 60 min): 98.8%; remaining amount in plasma ([10]; time point 120 min): 86.0%
